From patent US10076116B2, “N-cycloalkyl-N-(biheterocyclymethylene)-(thio)carboxamide derivatives” (BAYER CROPSCIENCE AKTIENGESELLSCHAFT, priority 2013, dated 2018)

Test system: not listed separately
Experiment: log P by HPLC on reversed-phase column (C 18), EEC Directive 79/831 Annex V.A8
Type: physicochemical
Conditions: HPLC C 18, 40° C., 0.1% aqueous formic acid and acetonitrile, gradient 10% to 90% acetonitrile
Description: In table 1, the log P values were determined in accordance with EEC Directive 79/831 Annex V.A8 by HPLC (High Performance Liquid Chromatography) on a reversed-phase column (C 18), using the method described below: Temperature: 40° C.; Mobile phases: 0.1% aqueous formic acid and acetonitrile; linear gradient from 10% acetonitrile to 90% acetonitrile. Calibration was carried out using unbranched alkan-2-ones (comprising 3 to 16 carbon atoms) with known log P values (determination of the log P values by the retention times using linear interpolation between two successive alkanones). lambda-max-values were determined using UV-spectra from 200 nm to 400 nm and the peak values of the chromatographic signals.

Row | Structure (SMILES) | logP
1 | Cn1cc(C(=O)N(Cc2cc(Br)cnc2Sc2cnc3ccccc3c2)C2CC2)c(C(F)F)n1 [Example I.57] | 3.27
2 | Cc1cscc1-c1cc(C(F)(F)F)cnc1CN(C(=O)c1c(C(F)F)nn(C)c1F)C1CC1 [I.22] | 4.12
3 | CC(=O)c1ccc(-c2cc(C(F)(F)F)cnc2CN(C(=O)c2c(C(F)F)nn(C)c2F)C2CC2)s1 [I.24] | 3.48
4 | Cn1nc(C(F)F)c(C(=S)N(Cc2ncc(C(F)(F)F)cc2-c2ccoc2)C2CC2)c1F [I.36] | 4.03
5 | Cn1nc(C(F)F)c(C(=O)N(Cc2nn(-c3ccccc3)cc2C2CCOCC2)C2CC2)c1F [I.04] | 3.15
6 | Cc1ccc(-c2ccsc2CN(C(=O)c2ccsc2Br)C2CC2)s1 [I.08] | 4.69
7 | Cn1nc(C(F)F)c(C(=O)N(Cc2ncc(C(F)(F)F)cc2-c2cnc3ccccc3c2)C2CC2)c1F [I.27] | 3.25
8 | Cn1cc(C(=O)N(Cc2ncc(C(F)(F)F)cc2-c2cccs2)C2CC2)c(C(F)F)n1 [I.39] | 3.46
9 | Cc1occc1-c1c(CN(C(=O)c2c(C(F)F)nn(C)c2F)C2CC2)sc2ccccc12 [I.52] | 4.20
10 | Cn1cc(C(=O)N(Cc2ncc(C(F)(F)F)cc2-c2csc3ccccc23)C2CC2)c(C(F)F)n1 [I.42] | 3.92
11 | Cc1cscc1-c1cc(C(F)(F)F)cnc1CN(C(=O)c1cn(C)nc1C(F)F)C1CC1 [I.38] | 3.69
12 | Cc1ccc(-c2cc(C(F)(F)F)cnc2CN(C(=O)c2c(C(F)F)nn(C)c2F)C2CC2)o1 [I.33] | 3.69
13 | CC(C)c1nc(-c2c(CN(C(=O)c3c(C(F)F)nn(C)c3F)C3CC3)sc3ccccc23)cs1 [I.49] | 4.61
14 | Cn1nc(C(F)F)c(C(=O)N(Cc2ncc(C(F)(F)F)cc2-c2csc3ccccc23)C2CC2)c1F [I.20] | 4.46
15 | Cn1cc(C(=O)N(Cc2ncc(C(F)(F)F)cc2-c2ccco2)C2CC2)c(C(F)F)n1 [I.40] | 3.29
16 | Cn1cc(C(=O)N(Cc2ncc(C(F)(F)F)cc2-c2cnc3ccccc3c2)C2CC2)c(C(F)F)n1 [I.44] | 2.82
17 | Cn1cncc1-c1c(CN(C(=O)c2c(C(F)F)nn(C)c2F)C2CC2)sc2ccccc12 [I.48] | 1.66
18 | Cn1nc(C(F)F)c(C(=O)N(Cc2ncc(C(F)(F)F)cc2-c2ccc(Cl)s2)C2CC2)c1F [I.18] | 4.54
19 | Cn1nc(C(F)F)c(C(=S)N(Cc2nn(-c3ccccc3)cc2-c2ccc3c(ccn3C)c2)C2CC2)c1F [I.05] | 4.64
20 | Cn1cc(C(=O)N(Cc2cc(Br)cnc2Sc2nccs2)C2CC2)c(C(F)F)n1 [Example I.58] | 3.09

Row | Structure (SMILES) | logP
21 | Cn1nc(C(F)F)c(C(=O)N(Cc2ncc(C(F)(F)F)cc2-c2ccoc2)C2CC2)c1F [I.26] | 3.48
22 | Cc1ccc(-c2ccsc2CN(C(=O)c2nn(C)nc2C(F)F)C2CC2)s1 [I.07] | 4.11
23 | Cn1nc(C(F)F)c(C(=O)N(Cc2ncc(C(F)(F)F)cc2-c2ccco2)C2CC2)c1F [I.30] | 3.68
24 | Cc1ccc(-c2ccsc2CN(C(=O)c2cn(C)cc2C(F)(F)F)C2CC2)s1 [I.09] | 4.18
25 | Cc1ccsc1-c1cc(C(F)(F)F)cnc1CN(C(=O)c1c(C(F)F)nn(C)c1F)C1CC1 [I.34] | 4.11
26 | Cc1cc(C(=O)N(Cc2sccc2-c2ccc(C)s2)C2CC2)c(C)o1 [I.10] | 4.54
27 | Cn1nc(C(F)F)c(C(=O)N(Cc2sc3ccccc3c2-c2cncnc2)C2CC2)c1F [I.54] | 2.76
28 | Cn1nc(C(F)F)c(C(=S)N(Cc2ncc(C(F)(F)F)cc2-c2cnc3ccccc3c2)C2CC2)c1F [I.35] | 3.90
29 | Cn1cc(C(=O)N(Cc2ncc(C(F)(F)F)cc2-c2coc3ccccc23)C2CC2)c(C(F)F)n1 [I.43] | 3.73
30 | Cn1cc(C(=O)N(Cc2cc(Br)cnc2Oc2cnc3ccccc3c2)C2CC2)c(C(F)F)n1 [Example I.56] | 3.09
31 | Cc1ccc(-c2ccsc2CN(C(=O)c2sc(C)nc2C(F)F)C2CC2)s1 [I.06] | 4.08
32 | Cn1nc(C(F)F)c(C(=O)N(Cc2nn(-c3ccccc3)cc2C2=CCOCC2)C2CC2)c1F [I.02] | 3.26
33 | Cn1nc(C(F)F)c(C(=O)N(Cc2ncc(C(F)(F)F)cc2-c2cc3ccccc3nc2O)C2CC2)c1F [I.28] | 2.76
34 | Cn1cc(C(=O)N(Cc2ncc(C(F)(F)F)cc2-c2ccoc2)C2CC2)c(C(F)F)n1 [I.46] | 3.15
35 | Cn1nc(C(F)F)c(C(=O)N(Cc2ncc(C(F)(F)F)cc2-c2cc3ccccc3s2)C2CC2)c1F [I.25] | 4.73
36 | Cn1cc(C(=O)N(Cc2ncc(C(F)(F)F)cc2-c2ccnc3cc(Cl)ccc23)C2CC2)c(C(F)F)n1 [I.45] | 3.27
37 | Cn1ccc(-c2c(CN(C(=O)c3c(C(F)F)nn(C)c3F)C3CC3)sc3ccccc23)c1 [I.51] | 3.89
38 | Cc1noc(C)c1-c1c(CN(C(=O)c2c(C(F)F)nn(C)c2F)C2CC2)sc2ccccc12 [Example I.55] | 3.51
39 | Cc1csc(-c2cc(C(F)(F)F)cnc2CN(C(=O)c2c(C(F)F)nn(C)c2F)C2CC2)c1 [I.32] | 4.27

Same assay, conditions: reversed-phase HPLC column (C 18); HPLC C 18, 40° C., 0.1% aqueous formic acid and acetonitrile, gradient 10% to 90% acetonitrile

Row | Structure (SMILES) | chromatographic logP
40 | Cn1nc(C(F)F)c(C(=O)N(Cc2ncc(C(F)(F)F)cc2Cl)C2CC2)c1F [N-{[3-chloro-5-(trifluoromethyl)pyridin-2-yl]methyl}-N-cyclopropyl-3-(difluoromethyl)-5-fluoro-1-methyl-1H-pyrazole-4-carboxamide] | 3.35
41 | Cc1ccc(-c2ccsc2CNC2CC2)s1 [IIb.01, N-[(5-methyl-2,3′-bithiophen-2′-yl)methyl]cyclopropanamine] | 1.39
42 | Cn1nc(C(F)F)c(C(=O)N(Cc2ncc(C(F)(F)F)cc2-c2ccsc2)C2CC2)c1F [I.17, N-cyclopropyl-3-(difluoromethyl)-5-fluoro-1-methyl-N-{[3-(3-thienyl)-5-(trifluoromethyl)pyridin-2-yl]methyl}-1H-pyrazole-4-carboxamide] | 3.67

Test system: Puccinia recondita
Experiment: In vivo preventive test on Puccinia recondita (brown rust on wheat)
Conditions: 100 ppm; very similar conditions; formulated in DMF with 2% of alkylarylpolyglycolether
Description: Example C: In Vivo Preventive Test on Puccinia recondita (Brown Rust on Wheat) […]
The young plants of wheat are treated by spraying the active ingredient prepared as described above. […]
After 24 hours, the plants are contaminated by spraying the leaves with an aqueous suspension of Puccinia recondita spores. The contaminated wheat plants are incubated for 24 hours at 20° C. and at 100% relative humidity and then for 10 days at 20° C. and at 70-80% relative humidity.
The test is evaluated 11 days after the inoculation. 0% means an efficacy which corresponds to that of the control plants while an efficacy of 100% means that no disease is observed.

Row | Structure (SMILES) | Efficacy at 100 ppm (Table C1)
43 | Cc1nn(-c2ccccc2)nc1CN(C(=O)c1c(C(F)F)nn(C)c1F)C1CC1 [131 from WO2012/059497, N-cyclopropyl-3-(difluoromethyl)-5-fluoro-1-methyl-N-[(5-methyl-2-phenyl-2H-1,2,3-triazol-4-yl)methyl]-1H-pyrazole-4-carboxamide] | 0%

Same assay, conditions: 500 ppm; very similar conditions; formulated in DMF with 2% of alkylarylpolyglycolether

Row | Structure (SMILES) | Efficacy at 500 ppm (Table C1)
44 | Cc1nn(-c2ccccc2)nc1CN(C(=O)c1c(C(F)F)nn(C)c1F)C1CC1 [131 from WO2012/059497, N-cyclopropyl-3-(difluoromethyl)-5-fluoro-1-methyl-N-[(5-methyl-2-phenyl-2H-1,2,3-triazol-4-yl)methyl]-1H-pyrazole-4-carboxamide] | 11%

Same assay, conditions: dose 125 ppm; in very similar conditions; prior-art analogues

Row | Structure (SMILES) | Efficacy (Table C2)
45 | Cn1cc(C(=O)N(Cc2cn(-c3ccccc3)c3ccccc23)C2CC2)c(C(F)F)n1 [18 from WO-2009/016222, N-cyclopropyl-3-(difluoromethyl)-1-methyl-N-[(1-phenyl-1H-indol-3-yl)methyl]-1H-pyrazole-4-carboxamide] | 0%
46 | CCc1nn(C)c(F)c1C(=O)N(Cc1cn(-c2ccccc2)c2ccccc12)C1CC1 [29 from WO-2009/016222, N-cyclopropyl-3-ethyl-5-fluoro-1-methyl-N-[(1-phenyl-1H-indol-3-yl)methyl]-1H-pyrazole-4-carboxamide] | 22%
47 | Cn1cc(C(=O)N(Cc2ccc(Oc3ccccc3)nc2)C2CC2)c(C(F)F)n1 [36 from WO-2008/037789, N-cyclopropyl-3-(difluoromethyl)-1-methyl-N-[(6-phenoxypyridin-3-yl)methyl]-1H-pyrazole-4-carboxamide] | 0%

Same assay, conditions: dose 500 ppm; in very similar conditions; prior-art analogues

Row | Structure (SMILES) | Efficacy (Table C3) | Efficacy (Table C2)
48 | Cc1nn(C)c(F)c1C(=O)N(Cc1nc(-c2ccc(Cl)cc2)cs1)C1CC1 [12 from WO2008/015189, N-{[4-(4-chlorophenyl)-1,3-thiazol-2-yl]methyl}-N-cyclopropyl-5-fluoro-1,3-dimethyl-1H-pyrazole-4-carboxamide] | 0% | 
49 | Cn1cc(C(=O)N(Cc2cn(-c3ccccc3)c3ccccc23)C2CC2)c(C(F)F)n1 [18 from WO-2009/016222, N-cyclopropyl-3-(difluoromethyl)-1-methyl-N-[(1-phenyl-1H-indol-3-yl)methyl]-1H-pyrazole-4-carboxamide] |  | 0%
50 | CCc1nn(C)c(F)c1C(=O)N(Cc1cn(-c2ccccc2)c2ccccc12)C1CC1 [29 from WO-2009/016222, N-cyclopropyl-3-ethyl-5-fluoro-1-methyl-N-[(1-phenyl-1H-indol-3-yl)methyl]-1H-pyrazole-4-carboxamide] |  | 67%
51 | Cn1cc(C(=O)N(Cc2ccc(Oc3ccccc3)nc2)C2CC2)c(C(F)F)n1 [36 from WO-2008/037789, N-cyclopropyl-3-(difluoromethyl)-1-methyl-N-[(6-phenoxypyridin-3-yl)methyl]-1H-pyrazole-4-carboxamide] |  | 0%
52 | Cn1cc(C(=O)N(Cc2nc(-c3ccc(Cl)cc3)cs2)C2CC2)c(C(F)(F)F)c1 [28 from WO2008/015189, N-{[4-(4-chlorophenyl)-1,3-thiazol-2-yl]methyl}-N-cyclopropyl-1-methyl-4-(trifluoromethyl)-1H-pyrrole-3-carboxamide] | 11% | 
53 | Cc1nc(-c2ccc(Cl)cc2)sc1CN(C(=O)c1c(C)nn(C)c1F)C1CC1 [17 from WO2008/015189, N-{[2-(4-chlorophenyl)-4-methyl-1,3-thiazol-5-yl]methyl}-N-cyclopropyl-5-fluoro-1,3-dimethyl-1H-pyrazole-4-carboxamide] | 10% | 
54 | Cn1nc(C(=O)N(Cc2nc(-c3ccc(Cl)cc3)cs2)C2CC2)c(C(F)(F)F)n1 [50 from WO2008/015189, N-{[4-(4-chlorophenyl)-1,3-thiazol-2-yl]methyl}-N-cyclopropyl-2-methyl-5-(trifluoromethyl)-2H-1,2,3-triazole-4-carboxamide] | 0% | 

Same assay, conditions: in very similar conditions; dose of 500 and 100 ppm; analogues of WO2012/059497

Row | Structure (SMILES) | protection
55 | Cc1nn(-c2ccccc2)nc1CN(C(=O)c1c(C(F)F)nn(C)c1F)C1CC1 [131 from WO2012/059497, N-cyclopropyl-3-(difluoromethyl)-5-fluoro-1-methyl-N-[(5-methyl-2-phenyl-2H-1,2,3-triazol-4-yl)methyl]-1H-pyrazole-4-carboxamide] | good (at least 80%) to no protection

Same assay, conditions: in very similar conditions; dose of 500 and 125 ppm; analogues of WO2009/016222 and WO2008/037789

Row | Structure (SMILES) | protection
56 | Cn1cc(C(=O)N(Cc2cn(-c3ccccc3)c3ccccc23)C2CC2)c(C(F)F)n1 [18 from WO-2009/016222, N-cyclopropyl-3-(difluoromethyl)-1-methyl-N-[(1-phenyl-1H-indol-3-yl)methyl]-1H-pyrazole-4-carboxamide] | good (at least 70%) to no protection
57 | CCc1nn(C)c(F)c1C(=O)N(Cc1cn(-c2ccccc2)c2ccccc12)C1CC1 [29 from WO-2009/016222, N-cyclopropyl-3-ethyl-5-fluoro-1-methyl-N-[(1-phenyl-1H-indol-3-yl)methyl]-1H-pyrazole-4-carboxamide] | good (at least 70%) to no protection
58 | Cn1cc(C(=O)N(Cc2ccc(Oc3ccccc3)nc2)C2CC2)c(C(F)F)n1 [36 from WO-2008/037789, N-cyclopropyl-3-(difluoromethyl)-1-methyl-N-[(6-phenoxypyridin-3-yl)methyl]-1H-pyrazole-4-carboxamide] | good (at least 70%) to no protection
